Experiments:
[1] = target: T1, AAD-13 (v2) (Sphingobium herbicidovorans, UniProt Q700X4); assay type: biochemical; conditions: substrate 1 mM; rate as percentage of 2,4-D rate in same sample set; propionate rates divided by two
T1 construct: His tag (C); made in house; host or cells: E. coli BL-21, pET-26b(+)
Text: In order to test a broad range of substrates, the production of succinate from the breakdown of α-ketoglutarate was detected spectrophotometricly using a protocol based on the method of Luo et. al. (2006) (Anal. Biochem. 353: 69-74). As depicted in FIG. 3, the concomitant breakdown of α-ketoglutarate and the substrate of interest via AAD-13, results in the production of succinate. Succinate is further modified to succinyl-CoA by succinyl-CoA synthetase which consumes ATP and produces ADP. ADP is then consumed by the commonly employed pyruvate kinase/lactate dehydrogenase enzymatic coupling system (Sigma P0294). The resulting conversion of NADH to NAD is monitored spectrophotometrically at 340 nm.
Identification of AAD-13 (v2) substrates in vitro was based on enzymatic activity detected during continuous spectrophotometric monitoring of a 0.2 mL reaction volume in a 96 well microtiter plate. Reaction conditions were as follows: 100 mM MOPS pH 7.0, 0.4 mM NADH, 0.4 mM ATP, 0.4 mM CoA, 1 mM PEP, 10 mM MgCl2, 0.1 mM […] (solubilized in HCl), and 0.1 mM ascorbate, 1 mM α-ketoglutarate and sufficient AAD-13 (v2) to produce an observable rate in the presence of 2,4-D. Coupling enzymes (SCS/PK/LDH) were adjusted by batch to ensure adequate coupling, and potential substrates were generally assayed at 1 mM. Alterations in substrate concentrations were made as needed to adjust for solubility. Reactions were initiated by either the addition of AAD-13 (v2) or potential substrate. The rate of substrate independent conversion of α-ketoglutarate to succinate by AAD was monitored under the above assay conditions and subtracted from the observed reaction rates. […] Additionally, propionate compounds were checked for pyruvate contamination by spectrophotometrically monitoring the consumption of NADH in the presence of compound and PK/LDH.
Reaction rates are reported as a percentage of the 2,4-D reaction rate obtained in the same sample set. […] It should be noted that faster rates can be more difficult to accurately compare depending on the percentage of available substrate consumed. […] As a result, highly efficient substrates will be properly grouped when compared to low efficiency substrates. Within the grouping of highly efficient substrates however, compounds may not be quantitatively separated by a screen using single rates of substrate and AAD.

[2] = test system: Segregating T2 AAD-13 (v1) Arabidopsis plants (pDAB4114.01.094); assay: Foliar pyridyloxyacetate response of segregating T2 AAD-13 (v1) Arabidopsis; assay type: in vivo, Arabidopsis thaliana
Method: The ability of AAD-13 (v1) to provide resistance to other aryloxyalkanoate auxin herbicides in transgenic Arabidopsis was determined by foliar application of various substrates. T2 generation Arabidopsis seed was stratified, and sown into selection trays much like that of Arabidopsis (Example 6.4). A transformed-control line containing PAT and the insect resistance gene Cry1F was planted in a similar manner. Seedlings were transferred to individual 3-inch pots in the greenhouse. All plants were sprayed with the use of a track sprayer set at 187 L/ha. The plants were sprayed with a range of pyridyloxyacetate herbicides: 200-800 g ae/ha triclopyr (Garlon 3A, Dow AgroSciences) and 200-800 g ae/ha fluoroxypyr (Starane, Dow AgroSciences). The 2,4-D metabolite resulting from AAD-13 activity, 2,4-dichlorophenol (DCP, Sigma) (at a molar equivalent to 280-2240 g ae/ha of 2,4-D, technical grade will also be tested. All applications were formulated in water. Each treatment was replicated 3-4 times. Plants were evaluated at 3 and 14 days after treatment.

[3] = test system: AAD-13 (v1) gene T1 tobacco plants; assay: Herbicide response of AAD-13 (v1) T1 tobacco; assay type: in vivo, Nicotiana tabacum; conditions: for plant response to foliar applied auxinic herbicides (injury): 14 days after application, line pDAB4114[1]003.006; for % Injury 20-40% (individuals) / % Injury <20% (individuals) / % Injury >40% (individuals) / % Injury Ave: 2 WAT
Text: Surviving T1 plants were then randomly assigned to various rates of 2,4-D. For tobacco, 140 g ae/ha 2,4-D is an effective dose to distinguish sensitive plants from ones with meaningful levels of resistance. Elevated rates were also applied to determine relative levels of resistance (140, 560, or 2240 g ae/ha).
All auxin herbicide applications were applied by track sprayer in a 187 L/ha spray volume. 2,4-D used was the commercial dimethylamine salt formulation (456 g ae/L, NuFarm, St Joseph, Mo.). Some T1 individuals were subjected to alternative commercial herbicides instead of a phenoxy auxin. One point of interest was determining whether the pyridyloxyacetate auxin herbicides, triclopyr and fluoroxypyr, could be effectively degraded in planta. Herbicides were applied to T1 plants with use of a track sprayer in a 187 L/ha spray volume.
T1 transformants were first selected from the background of untransformed plants using a 2,4-D selection scheme. Table 15 compares the response of AAD-13 (v1) and control genes to impart 2,4-D resistance to tobacco T1 transformants. Response is presented in terms of % visual injury 2 WAT. […] An arithmetic mean and standard deviation is presented for each treatment. The range in individual response is also indicated in the last column for each rate and transformation. KY160 untransformed tobacco served as an auxin-sensitive control. The AAD-13 (v1) gene imparted herbicide resistance to individual T1 tobacco plants.
The ability of AAD-13 (v1) to provide resistance to other aryloxyalkanoate auxin herbicides in transgenic tobacco was determined by foliar application of various substrates. Extra T1 generation plants following the T1 progeny testing were sprayed with the use of a track sprayer set at 187 L/ha. The plants were sprayed with a range of pyridyloxyacetate herbicides: 140-1120 g ae/ha triclopyr (Garlon 3A, Dow AgroSciences) and 280-1120 g ae/ha fluoroxypyr (Starane, Dow AgroSciences). All applications were formulated in water. Each treatment was replicated 3 times. Plants were evaluated at 3 and 14 days after treatment.

T1 sequence (Q700X4 other isoform, or with tags, fused parts or gaps): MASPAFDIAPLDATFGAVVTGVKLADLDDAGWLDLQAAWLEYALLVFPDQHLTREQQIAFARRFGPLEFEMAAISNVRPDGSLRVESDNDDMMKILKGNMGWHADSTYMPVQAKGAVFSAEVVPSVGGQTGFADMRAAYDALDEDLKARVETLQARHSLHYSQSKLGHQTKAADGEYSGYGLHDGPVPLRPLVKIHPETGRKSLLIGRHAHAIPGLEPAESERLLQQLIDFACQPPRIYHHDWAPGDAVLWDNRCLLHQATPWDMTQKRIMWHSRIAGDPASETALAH

Row | Structure (SMILES) | % of 24D activity [1] | Ave. % Injury 14DAT ([2]; 200 g ae/ha foliar-applied) | Ave. % Injury 14DAT ([2]; 400 g ae/ha foliar-applied) | Ave. % Injury 14DAT ([2]; 800 g ae/ha foliar-applied) | plant response to foliar applied auxinic herbicides (injury) ([3]; 280 g ae/ha) | plant response to foliar applied auxinic herbicides (injury) ([3]; 560 g ae/ha) | plant response to foliar applied auxinic herbicides (injury) ([3]; 1120 g ae/ha) | other results
1 | O=C(O)COc1nc(Cl)c(Cl)cc1Cl [triclopyr] | 6% | 75% | 90% | 100% | 53.0 | 65.0 | 75.0 | 
2 | C[C@@H](Oc1ccc(Cl)cc1Cl)C(=O)O [R-dichloroprop, R-dichlorprop] | 19% |  |  |  |  |  |  | 
3 | CNC.O=C(O)COc1ccc(Cl)cc1Cl [2,4-D DMA] |  |  |  |  |  |  |  | % Injury 20-40% (individuals) ([3]; 140 g ae/ha postemergence): 0; % Injury <20% (individuals) ([3]; 140 g ae/ha postemergence): 3; % Injury >40% (individuals) ([3]; 140 g ae/ha postemergence): 0; % Injury Ave ([3]; 140 g ae/ha postemergence): 0.0%; % Injury 20-40% (individuals) ([3]; 560 g ae/ha postemergence): 0; % Injury <20% (individuals) ([3]; 560 g ae/ha postemergence): 3; % Injury >40% (individuals) ([3]; 560 g ae/ha postemergence): 0; % Injury Ave ([3]; 560 g ae/ha postemergence): 0.0%; % Injury 20-40% (individuals) ([3]; 2240 g ae/ha postemergence): 0; % Injury <20% (individuals) ([3]; 2240 g ae/ha postemergence): 3; % Injury >40% (individuals) ([3]; 2240 g ae/ha postemergence): 0; % Injury Ave ([3]; 2240 g ae/ha postemergence): 2.0%
4 | Nc1c(Cl)c(F)nc(OCC(=O)O)c1Cl [fluoroxypyr] | 67% | 10% | 16% | 55% | 7.0 | 25.0 | 37.0 | rate up to which robust resistance is provided ([2]; foliar application): up to 400 g ae/ha; rate up to which significant tolerance is provided ([3]; foliar application, T1 tobacco): up to 1120 g ae/ha
